Experimental data published in ChEMBL document CHEMBL6096675 (J Med Chem, 2025).
pIC50: −log10 of the molar value. The source made the active and inactive calls. No cut-off for these calls is given here.

Experiments:
[1] = Plasma concentration in SCID mouse xenografted with human NCI-H838 cells at 10 mg/kg, iv measured after 96 hrs by LC-MS/MS analysis; assay type: ADME, organism-based
[2] = Drug uptake in tumor of human NCI-H838 cells xenografted SCID mouse model at 10 mg/kg, iv measured after 96 hrs by LC-MS/MS analysis; assay type: ADME, organism-based, Neoplasm; conditions: read-out: Drug uptake
[3] = Drug uptake in tumor of human NCI-H838 cells xenografted SCID mouse model at 10 mg/kg, iv measured after 168 hrs by LC-MS/MS analysis; assay type: ADME, organism-based, Neoplasm; conditions: read-out: Drug uptake
[4] = biological target: SWI/SNF-related matrix-associated actin-dependent regulator of chromatin subfamily A member 2 (Homo sapiens, UniProt P51531); assay: Inhibition of human SMARCA2 by TR-FRET assay
[5] = tested on: SK-MEL-5; assay: Antiproliferative activity against human SMARCA4-deficient SK-MEL-5 cells assessed as inhibition of cell growth measured after 7 days by WST-8 assay; assay type: functional; conditions: SK-MEL-5, 168 h, time 7 day
[6] = Antiproliferative activity against human SMARCA4-deficient NCI-H838 cells assessed as maximal inhibition of cell growth measured after 7 days by WST-8 assay relative to control; assay type: functional; conditions: time 7 day
[7] = Antiproliferative activity against human SMARCA4-deficient NCI-H1568 cells assessed as maximal inhibition of cell growth measured after 7 days by WST-8 assay relative to control; assay type: functional; conditions: time 7 day
[8] = Antiproliferative activity against human SMARCA4-deficient NCI-H1944 cells assessed as maximal inhibition of cell growth measured after 7 days by WST-8 assay relative to control; assay type: functional; conditions: time 7 day
[9] = tested on: NCI-H1792; assay: Antiproliferative activity against human SMARCA4-wild type NCI-H1792 cells assessed as maximal inhibition of cell growth measured after 7 days by WST-8 assay relative to control; assay type: functional; conditions: time 7 day
[10] = tested on: SK-MEL-28; assay: Antiproliferative activity against human SMARCA4-wild type SK-MEL-28 cells assessed as maximal inhibition of cell growth measured after 7 days by WST-8 assay relative to control; assay type: functional; conditions: time 7 day
[11] = Antiproliferative activity against human […] NCI-H1975 cells assessed as maximal inhibition of cell growth measured after 7 days by WST-8 assay relative to control; assay type: functional; conditions: time 7 day
[12] = Half life in mouse at 1 mg/kg, iv; assay type: ADME, organism-based; conditions: in vivo
[13] = Clearance in mouse at 1 mg/kg, iv; assay type: ADME, organism-based; conditions: in vivo
[14] = AUC (0 to 24hrs) in rat at 1 mg/kg, iv; assay type: ADME, organism-based; conditions: in vivo
[15] = Clearance in rat at 1 mg/kg, iv; assay type: ADME, organism-based; conditions: in vivo
[16] = Drug uptake in tumor of mouse xenografted with human H838 cells at 10 mg/kg, iv single dose measured after 168 hrs by LC-MS/MS analysis; assay type: ADME, organism-based, Neoplasm, NCI-H838; conditions: read-out: Drug uptake
[17] = Drug uptake in tumor of mouse xenografted with human MV4-11 cells at 30 mg/kg, iv single dose measured after 96 hrs by LC-MS/MS analysis; assay type: ADME, organism-based, Neoplasm; conditions: read-out: Drug uptake
[18] = Metabolic stability in mouse liver microsomes assessed as half life; assay type: ADME, Microsome
[19] = biological target: T1, Cytochrome P450 1A2 (Homo sapiens, UniProt P05177); assay: Inhibition of CYP1A2 (unknown origin); assay type: ADME
T1 sequence (P05177 whole entry): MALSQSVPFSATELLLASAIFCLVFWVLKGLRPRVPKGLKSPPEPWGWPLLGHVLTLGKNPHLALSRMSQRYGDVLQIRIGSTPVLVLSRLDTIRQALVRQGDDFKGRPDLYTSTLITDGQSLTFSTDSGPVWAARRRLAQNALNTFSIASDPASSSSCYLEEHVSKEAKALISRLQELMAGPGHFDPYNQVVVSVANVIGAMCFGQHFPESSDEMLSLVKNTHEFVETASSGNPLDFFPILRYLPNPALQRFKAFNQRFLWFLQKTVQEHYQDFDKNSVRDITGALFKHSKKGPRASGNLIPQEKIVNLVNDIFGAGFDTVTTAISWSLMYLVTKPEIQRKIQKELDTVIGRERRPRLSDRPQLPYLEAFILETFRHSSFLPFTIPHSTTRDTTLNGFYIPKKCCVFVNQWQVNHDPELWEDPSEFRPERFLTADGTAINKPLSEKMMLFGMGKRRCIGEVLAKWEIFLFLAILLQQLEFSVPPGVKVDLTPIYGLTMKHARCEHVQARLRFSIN

[20] = biological target: T2, Cytochrome P450 2C8 (Homo sapiens, UniProt P10632); assay: Inhibition of CYP2C8 (unknown origin); assay type: ADME
T2 sequence (P10632 whole entry): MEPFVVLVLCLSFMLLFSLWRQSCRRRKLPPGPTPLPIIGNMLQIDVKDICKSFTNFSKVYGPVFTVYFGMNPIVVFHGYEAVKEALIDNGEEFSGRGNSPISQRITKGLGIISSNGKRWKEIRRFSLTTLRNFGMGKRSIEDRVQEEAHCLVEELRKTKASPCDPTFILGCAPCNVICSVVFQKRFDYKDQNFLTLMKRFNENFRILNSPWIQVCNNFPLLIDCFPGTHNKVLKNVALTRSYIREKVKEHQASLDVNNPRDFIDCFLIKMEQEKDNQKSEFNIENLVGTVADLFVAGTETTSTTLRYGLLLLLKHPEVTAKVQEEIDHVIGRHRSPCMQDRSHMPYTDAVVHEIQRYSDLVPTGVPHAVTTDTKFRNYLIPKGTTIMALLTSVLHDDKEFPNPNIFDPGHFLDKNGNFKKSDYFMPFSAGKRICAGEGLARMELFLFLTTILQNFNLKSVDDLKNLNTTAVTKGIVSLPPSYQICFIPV

[21] = biological target: Cytochrome P450 2C9 (Homo sapiens, UniProt P11712); assay: Inhibition of CYP2C9 (unknown origin); assay type: ADME
[22] = biological target: T3, Cytochrome P450 2B6 (Homo sapiens, UniProt P20813); assay: Inhibition of CYP2B6 (unknown origin); assay type: ADME
T3 sequence (P20813 whole entry): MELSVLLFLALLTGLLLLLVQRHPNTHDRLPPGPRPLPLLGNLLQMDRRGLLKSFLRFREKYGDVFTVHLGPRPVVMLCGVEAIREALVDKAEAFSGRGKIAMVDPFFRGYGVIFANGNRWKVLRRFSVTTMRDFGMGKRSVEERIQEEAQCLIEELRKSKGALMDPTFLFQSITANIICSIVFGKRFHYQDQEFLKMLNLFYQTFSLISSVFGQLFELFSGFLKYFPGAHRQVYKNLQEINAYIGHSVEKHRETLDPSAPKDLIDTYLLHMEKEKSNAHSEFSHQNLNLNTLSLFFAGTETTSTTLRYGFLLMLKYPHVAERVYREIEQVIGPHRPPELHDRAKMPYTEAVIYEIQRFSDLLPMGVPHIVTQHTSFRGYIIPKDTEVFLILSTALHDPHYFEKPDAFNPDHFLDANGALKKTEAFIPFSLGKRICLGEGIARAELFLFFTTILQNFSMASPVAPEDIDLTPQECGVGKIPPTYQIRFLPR

[23] = tested on: NCI-H838; assay: In vivo anti-tumor activity against human NCI-H838 cells xenografted in SCID mouse assessed as assessed as inhibition of tumor growth at 30 mg/kg, iv treated for 3 weeks measured after treatment stop; assay type: functional, organism-based

Chain of SWI/SNF-related matrix-associated actin-dependent regulator of chromatin subfamily A member 2 (P51531 whole entry): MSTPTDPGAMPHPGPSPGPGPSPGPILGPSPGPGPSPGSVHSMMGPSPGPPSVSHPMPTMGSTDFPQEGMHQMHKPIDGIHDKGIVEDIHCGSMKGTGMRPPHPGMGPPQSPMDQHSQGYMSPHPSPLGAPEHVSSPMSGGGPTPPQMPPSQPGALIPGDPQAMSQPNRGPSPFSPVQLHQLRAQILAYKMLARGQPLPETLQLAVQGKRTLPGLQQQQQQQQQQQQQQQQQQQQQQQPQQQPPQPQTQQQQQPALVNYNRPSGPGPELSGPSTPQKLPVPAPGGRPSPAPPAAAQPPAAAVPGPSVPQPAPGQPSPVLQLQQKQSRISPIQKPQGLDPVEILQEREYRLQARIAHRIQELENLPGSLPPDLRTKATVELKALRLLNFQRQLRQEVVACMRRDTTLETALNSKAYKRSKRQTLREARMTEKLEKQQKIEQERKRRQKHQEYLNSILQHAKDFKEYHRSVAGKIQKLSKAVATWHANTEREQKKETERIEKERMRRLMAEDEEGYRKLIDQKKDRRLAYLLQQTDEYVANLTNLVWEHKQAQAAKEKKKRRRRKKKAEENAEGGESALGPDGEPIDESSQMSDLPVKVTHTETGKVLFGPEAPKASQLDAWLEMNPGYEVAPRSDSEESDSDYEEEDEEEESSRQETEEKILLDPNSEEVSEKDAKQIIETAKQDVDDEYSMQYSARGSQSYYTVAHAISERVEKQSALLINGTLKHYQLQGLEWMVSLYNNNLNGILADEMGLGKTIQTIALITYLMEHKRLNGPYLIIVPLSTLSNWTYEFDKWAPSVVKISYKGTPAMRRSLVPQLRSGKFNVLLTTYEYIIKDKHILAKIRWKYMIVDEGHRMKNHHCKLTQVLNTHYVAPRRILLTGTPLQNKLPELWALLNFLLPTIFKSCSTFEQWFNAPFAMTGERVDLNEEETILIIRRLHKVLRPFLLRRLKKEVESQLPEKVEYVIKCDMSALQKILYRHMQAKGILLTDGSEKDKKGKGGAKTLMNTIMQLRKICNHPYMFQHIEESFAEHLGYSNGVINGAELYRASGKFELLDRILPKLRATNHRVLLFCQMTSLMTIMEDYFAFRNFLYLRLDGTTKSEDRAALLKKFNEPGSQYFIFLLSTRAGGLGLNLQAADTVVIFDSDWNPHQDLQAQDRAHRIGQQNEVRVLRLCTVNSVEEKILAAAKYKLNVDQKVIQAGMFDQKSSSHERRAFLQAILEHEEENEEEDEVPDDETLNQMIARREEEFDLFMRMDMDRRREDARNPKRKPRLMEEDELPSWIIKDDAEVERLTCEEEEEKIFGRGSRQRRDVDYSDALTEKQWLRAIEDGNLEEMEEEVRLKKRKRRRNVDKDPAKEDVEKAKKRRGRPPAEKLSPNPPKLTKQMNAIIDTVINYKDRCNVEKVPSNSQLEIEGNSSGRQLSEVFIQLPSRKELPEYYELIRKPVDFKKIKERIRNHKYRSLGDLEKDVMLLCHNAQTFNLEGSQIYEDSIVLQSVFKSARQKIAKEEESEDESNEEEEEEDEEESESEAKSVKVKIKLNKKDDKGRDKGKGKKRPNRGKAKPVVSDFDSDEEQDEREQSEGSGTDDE
Chain of Cytochrome P450 2C9 (P11712 whole entry): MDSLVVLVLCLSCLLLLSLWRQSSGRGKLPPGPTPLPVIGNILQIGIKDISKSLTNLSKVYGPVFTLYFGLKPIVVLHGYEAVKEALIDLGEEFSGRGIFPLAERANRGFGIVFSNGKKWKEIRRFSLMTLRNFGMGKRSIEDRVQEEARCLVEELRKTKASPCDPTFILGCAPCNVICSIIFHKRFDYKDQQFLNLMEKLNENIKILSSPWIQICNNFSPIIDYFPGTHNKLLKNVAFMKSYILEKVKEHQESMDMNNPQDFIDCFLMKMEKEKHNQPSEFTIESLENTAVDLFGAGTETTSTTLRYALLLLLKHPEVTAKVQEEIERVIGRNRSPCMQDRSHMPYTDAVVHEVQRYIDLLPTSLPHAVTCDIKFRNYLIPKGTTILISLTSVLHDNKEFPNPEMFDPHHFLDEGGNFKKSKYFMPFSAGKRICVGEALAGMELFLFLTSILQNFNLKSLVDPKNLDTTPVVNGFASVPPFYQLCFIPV

concentration at 96 h [1]: 6.8 ng/mL
concentration at 96 h [2]: 268 ng/mL
concentration at 168 h [3]: 169 ng/mL
pIC50 [4]: 7.37
GI50 [5]: 0.0015 µM
half-life [12]: 8.4 h
clearance [13]: 9.2 mL/min/kg
AUC(0-t) [14]: 753 ng·h/mL
clearance [15]: 22 mL/min/kg
concentration at 168 h [16]: 169 ng/mL
concentration at 96 h [17]: 1640 ng/mL
half-life [18]: > 1 h
pIC50 [19]: < 4.00
pIC50 [20]: < 4.00
pIC50 [21]: < 4.00
pIC50 [22]: < 4.00
SMILES: Cc1ncsc1-c1ccc([C@H](CN2CCOCC2)NC(=O)[C@@H]2C[C@@H](O)CN2C(=O)[C@@H](n2cc([C@H]3CC[C@H](CN4CCC(c5ccc6c(c5)-n5c(nc(=O)c7c(Cl)cccc75)C65CCCCC5)CC4)CC3)nn2)C(C)(C)C)cc1
Imax [6]: 80%
Imax [7]: 86%
Imax [8]: 71%
Imax [9]: 80%
Imax [10]: 55%
Imax [11]: 65%
Activity [23]: inactive
